Measurements reported in US11149021B2, “N-(azaaryl)cyclolactam-1-carboxamide derivative, preparation method therefor, and use thereof” (Abbisko Therapeutics Co., Ltd., priority 2017, dated 2021).
Where two headings read alike, the source gives them in different places.

Legend:
[1] = test system: NCI-H1703 human non-small cell lung squamous carcinoma cells; assay: CSF-1R-related cell proliferation experiment, PDGFRA (Cell Titer Glo); type: cell-based; settings: NCI-H1703, 72 h, read-out: Cytological experiment PDGERA IC50 (nM)
CSF-1R = molecular target: T1, CSF-1R (Homo sapiens, UniProt P07333); assay: CSF-1R in vitro biochemical kinase study (ADP-Glo assay)
T1 construct: 3.95 nM of CSF-1R, 500 μM of ATP
T1 sequence (P07333 20-972): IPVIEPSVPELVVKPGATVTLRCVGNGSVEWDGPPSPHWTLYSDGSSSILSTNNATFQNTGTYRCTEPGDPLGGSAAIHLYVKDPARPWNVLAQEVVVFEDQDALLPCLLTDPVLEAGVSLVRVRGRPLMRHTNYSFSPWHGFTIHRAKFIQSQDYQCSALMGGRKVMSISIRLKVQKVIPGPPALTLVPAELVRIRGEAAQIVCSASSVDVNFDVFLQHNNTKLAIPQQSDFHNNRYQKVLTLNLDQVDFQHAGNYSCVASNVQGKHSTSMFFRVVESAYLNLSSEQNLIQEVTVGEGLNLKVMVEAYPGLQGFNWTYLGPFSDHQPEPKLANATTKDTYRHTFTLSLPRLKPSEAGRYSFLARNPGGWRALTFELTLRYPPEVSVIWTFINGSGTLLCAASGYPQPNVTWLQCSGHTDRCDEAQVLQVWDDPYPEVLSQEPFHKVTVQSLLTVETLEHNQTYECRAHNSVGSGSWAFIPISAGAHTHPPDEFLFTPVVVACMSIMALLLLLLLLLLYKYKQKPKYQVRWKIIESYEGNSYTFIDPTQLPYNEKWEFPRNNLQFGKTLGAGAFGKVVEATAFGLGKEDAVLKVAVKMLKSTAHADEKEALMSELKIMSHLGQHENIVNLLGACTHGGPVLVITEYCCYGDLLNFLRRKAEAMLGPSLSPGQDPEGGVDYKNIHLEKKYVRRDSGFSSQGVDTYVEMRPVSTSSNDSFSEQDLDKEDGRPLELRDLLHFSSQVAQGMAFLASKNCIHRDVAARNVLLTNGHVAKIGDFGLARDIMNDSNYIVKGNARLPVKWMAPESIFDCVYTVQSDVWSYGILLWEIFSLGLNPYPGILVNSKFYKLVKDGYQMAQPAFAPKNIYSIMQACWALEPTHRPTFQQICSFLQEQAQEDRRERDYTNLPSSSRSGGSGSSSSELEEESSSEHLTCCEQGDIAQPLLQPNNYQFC

[2] = test system: M-07e human cytomegalic leukemia cells; assay: CSF-1R-related cell proliferation experiment, KIT (Cell Titer Glo); type: cell-based; settings: 72 h, read-out: Cytological experiment KIT IC50 (nM)
PDGFRA = PDGFRA (Homo sapiens, UniProt P16234); assay: PDGFRA in vitro biochemical kinase study (Caliper EZ Reader); settings: * = average of multiple tests; read-out: Enzymatic experiment PDGFRA IC50
PDGFRA, sequence (P16234 24-1089): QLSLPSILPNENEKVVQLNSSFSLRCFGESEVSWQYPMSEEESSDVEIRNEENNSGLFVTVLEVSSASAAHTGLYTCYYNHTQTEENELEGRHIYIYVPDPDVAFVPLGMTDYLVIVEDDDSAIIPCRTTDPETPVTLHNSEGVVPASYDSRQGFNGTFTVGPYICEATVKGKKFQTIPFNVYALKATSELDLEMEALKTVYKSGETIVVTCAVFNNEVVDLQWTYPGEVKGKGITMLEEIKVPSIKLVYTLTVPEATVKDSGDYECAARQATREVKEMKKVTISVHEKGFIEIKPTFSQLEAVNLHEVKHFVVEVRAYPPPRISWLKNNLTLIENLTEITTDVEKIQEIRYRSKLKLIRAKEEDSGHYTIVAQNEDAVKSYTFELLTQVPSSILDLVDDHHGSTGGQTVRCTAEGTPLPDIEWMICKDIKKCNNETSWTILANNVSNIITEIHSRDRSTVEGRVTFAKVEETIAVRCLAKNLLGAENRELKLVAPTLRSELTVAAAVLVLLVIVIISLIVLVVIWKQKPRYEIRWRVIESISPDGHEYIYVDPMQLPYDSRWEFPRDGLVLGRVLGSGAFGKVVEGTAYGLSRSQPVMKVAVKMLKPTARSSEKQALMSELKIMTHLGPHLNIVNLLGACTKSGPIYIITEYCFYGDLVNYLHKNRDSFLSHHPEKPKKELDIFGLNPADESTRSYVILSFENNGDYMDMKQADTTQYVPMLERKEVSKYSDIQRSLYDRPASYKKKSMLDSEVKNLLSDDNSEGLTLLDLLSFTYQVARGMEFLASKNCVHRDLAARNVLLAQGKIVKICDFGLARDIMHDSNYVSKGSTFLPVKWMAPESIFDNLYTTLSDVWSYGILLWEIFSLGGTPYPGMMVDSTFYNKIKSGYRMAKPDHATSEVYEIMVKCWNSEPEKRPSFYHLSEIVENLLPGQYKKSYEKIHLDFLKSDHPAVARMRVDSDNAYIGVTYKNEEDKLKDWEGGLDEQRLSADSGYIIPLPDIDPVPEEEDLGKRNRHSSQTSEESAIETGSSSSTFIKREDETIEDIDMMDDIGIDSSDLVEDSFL
Procedure: (§1) 8. the compound IC50 value was measured by using a plate reader (Tecan, M1000) and a four-parameter curve was generated in Graphpad Prism. The enzymatic activities of compounds in the specific embodiments are shown in Table 1. • B. KIT/PDGFRA in vitro biochemical kinase study • 1. Preparation of 1-fold kinase buffer and stop solution • 1.1. 1-fold kinase buffer: 50 mM HEPES, pH 7.5, 0.0015% Brij-35. • 1.2 stop solution: 100 mM HEPES, pH 7.5, 0.015% Brij-35, 0.2% Coating Reagent #3, 50 mM EDTA • 2 Preparation of compound solution • 2.1 Dilution of compound solution • 1) The final concentration of the compound solution was 40 μM, and the concentration of the prepared stock solution was 50 times of the final concentration, i.e., 2 mM. • 2) 80 μL of 100% DMSO was added to the second well of a 96-well plate, and then 20 μL of 10 mM compound solution was added to obtain 2 mM compound solution. 60 μL of 100% DMSO was added to other wells. 20 μL solution was taken from the second well and added to the third well, which was diluted by 4 times. This serial 4-time dilution was conducted in sequence for the total of 10 concentration. • 2.2 5-fold compound solution transferred to a reaction plate • 1) 10 μL solution was taken from each well of the above 96-well plate and added to another 96-well plate, and 90 µl of kinase buffer was added in each well of new plate. • 2) 5 μL solution was taken from the above 96-well plate and added to a 384-well reaction plate. • 2.3 Kinase reaction • 1) KIT/PDGFRA kinase was added to the 1-fold kinase buffer solution to obtain a 2.5-fold kinase solution. • 2) FAM-labeled polypeptide and ATP were added to the 1-fold kinase buffer solution to obtain a 2.5-fold substrate solution. • 3) 10 μL of 2.5-fold kinase solution was added to the 384-well reaction plate, which already contained 5 μL of 5-fold compound in 10% DMSO. […] Percent inhibition=(max-conversion)/(max-min)×100
(§2) 3) The IC50 value was fit with XLFit excel add-in version 5.4.0,8: Fitting formula: Y=Bottom+(Top-Bottom)/(1+(IC50/X)^HillSlope).
(§3) CSF-1R cell proliferation study

[3] = test system: M-NFS-60 mouse myeloid leukemia lymphocytes; assay: CSF-1R cell proliferation study (Cell Titer Glo); type: cell-based; settings: Lymphocyte, 72 h;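 also: M-CSF-driven proliferation, viable cells quantified as ATP by luminescence, compounds tested as 3-fold serial dilutions, values from four-parameter curve fits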
KIT = KIT (Homo sapiens, UniProt P10721); assay: KIT in vitro biochemical kinase study (Caliper EZ Reader); settings: * = average of multiple tests; read-out: Enzymatic experiment KIT IC50
KIT, sequence (P10721 26-976): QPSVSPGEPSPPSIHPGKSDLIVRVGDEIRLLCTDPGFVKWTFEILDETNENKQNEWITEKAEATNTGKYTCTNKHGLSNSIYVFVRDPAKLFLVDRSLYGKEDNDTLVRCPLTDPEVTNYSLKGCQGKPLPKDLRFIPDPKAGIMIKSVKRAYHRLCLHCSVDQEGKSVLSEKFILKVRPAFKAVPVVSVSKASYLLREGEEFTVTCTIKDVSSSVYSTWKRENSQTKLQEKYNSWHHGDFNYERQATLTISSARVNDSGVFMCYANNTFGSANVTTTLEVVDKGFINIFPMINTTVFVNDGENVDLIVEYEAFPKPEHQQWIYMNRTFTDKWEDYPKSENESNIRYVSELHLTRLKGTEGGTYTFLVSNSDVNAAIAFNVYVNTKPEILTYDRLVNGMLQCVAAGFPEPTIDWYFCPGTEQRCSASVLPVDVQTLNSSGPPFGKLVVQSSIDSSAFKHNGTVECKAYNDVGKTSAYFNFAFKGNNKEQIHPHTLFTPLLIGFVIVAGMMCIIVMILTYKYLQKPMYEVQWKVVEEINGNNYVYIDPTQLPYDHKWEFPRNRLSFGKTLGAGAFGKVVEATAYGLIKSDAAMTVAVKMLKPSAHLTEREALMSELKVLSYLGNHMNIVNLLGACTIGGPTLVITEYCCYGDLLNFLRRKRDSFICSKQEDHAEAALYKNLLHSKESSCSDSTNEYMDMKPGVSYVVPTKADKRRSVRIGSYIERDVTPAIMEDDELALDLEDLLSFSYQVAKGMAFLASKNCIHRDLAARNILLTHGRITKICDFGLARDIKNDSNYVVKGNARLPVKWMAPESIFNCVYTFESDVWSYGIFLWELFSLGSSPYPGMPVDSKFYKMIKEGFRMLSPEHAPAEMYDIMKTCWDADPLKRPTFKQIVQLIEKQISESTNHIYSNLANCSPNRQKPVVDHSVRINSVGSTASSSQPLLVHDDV
Procedure: as §1, §2, §3

[4] = test system: MV-4-11 human acute monocytic leukemia cells; assay: CSF-1R-related cell proliferation experiment, FLT3 (Cell Titer Glo); type: cell-based; settings: MV4-11, 72 h, read-out: Cytological experiment FLT3 IC50 (nM)
[5] = read-out: Cytological experiment CS1-1R Absolute IC50 (nM)
[6] = read-out: Cytological experiment CSF-1R IC50 (nM)

| IC50 [1] [nM] | IC50 (CSF-1R) [µM] | IC50 [2] [nM] | IC50 (PDGFRA) [µM] | IC50 [3, 5] [nM] | IC50 [3, 6] [nM] | IC50 (KIT) [µM] | IC50 [4] [nM] | SMILES |
| --- | --- | --- | --- | --- | --- | --- | --- | --- |
| 2870 | 0.0195 | 1060 | 1.4 | 24.1 | 25 | 0.077 | 5560 | Cc1nc(NC(=O)N2CCC(C)(C)C2=O)ccc1Oc1ccnc(-c2cnn(C)c2)c1 [Example 1, 3,3-dimethyl-N-(6-methyl-5-((2-(1-methyl-1H-pyrazol-4-yl)pyridin-4-yl)oxy)pyridin-2-yl)-2-oxopyrrolidine-1-carboxamide] |
| 18000 | 0.0144 | 158 | 0.435 | 23.1 | 26.3 | 0.0598 | 6000 | Cn1cc(-c2cc(Oc3ccc(NC(=O)N4CCC(C)(C)C4=O)nc3)ccn2)cn1 [Example 2, 3,3-dimethyl-N-(5-((2-(1-methyl-1H-pyrazol-4-yl)pyridin-4-yl)oxy)pyridin-2-yl)-2-oxopyrrolidine-1-carboxamide] |
| 6000 | 0.0258 | 1670 | 2.45 | 36.6 | 42.9 | 0.167 | 9000 | CCn1cc(-c2cc(Oc3ccc(NC(=O)N4CCC(C)(C)C4=O)nc3C)ccn2)cn1 [Example 6, N-(5-((2-(1-ethyl-1H-pyrazol-4-yl)pyridin-4-yl)oxy)-6-methylpyridin-2-yl)-3,3-dimethyl-2-oxopyrrolidine-1-carboxamide] |
| 6000 | 0.0563 | 4900 | 13.1 | 140 | 104 | 0.476 | 18000 | Cc1nc(NC(=O)N2CCC(C)(C)C2=O)ccc1Oc1ccnc(-c2cnn(CCO)c2)c1 [Example 10, N-(5-((2-(1-(2-hydroxyethyl)-1H-pyrazol-4-yl)pyridin-4-yl)oxy)-6-methylpyridin-2-yl)-3,3-dimethyl-2-oxopyrrolidine-1-carboxamide] |
| 9530 | 0.0242 | 940 | 0.107 | 31.9 | 35.7 | 0.00848 | 10000 | Cc1nc(NC(=O)N2CCCC(C)(C)C2=O)ccc1Oc1ccnc(-c2cnn(C)c2)c1 [Example 28, 3,3-dimethyl-N-(6-methyl-5-((2-(1-methyl-1H-pyrazol-4-yl)pyridin-4-yl)oxy)pyridin-2-yl)-2-oxopiperidine-1-carboxamide] |
| > 6000 | 0.0522 | > 2000 | 0.931 | 75.1 | 76.3 | 0.0925 | > 18000 | Cc1nc(NC(=O)N2CCOC(C)(C)C2=O)ccc1Oc1ccnc(-c2cnn(C)c2)c1 [Example 29, 2,2-dimethyl-N-(6-methyl-5-((2-(1-methyl-1H-pyrazol-4-yl)pyridin-4-yl)oxy)pyridin-2-yl)-3-oxomorpholine-4-carboxamide] |
